The record followed here is ChEMBL document CHEMBL3232711, “Novel inhibitors of the MDM2-p53 interaction featuring hydrogen bond acceptors as carboxylic acid isosteres” (J Med Chem, 2014).

Data set [1] can be described thus: Intrinsic clearance in human hepatocytes measured per 10^6 cells. Type of data set: ADME, cell-based, Hepatocyte. The settings on record: read-out: CLH.
The nature of data set [2]: Clearance in rat at 0.5 mg/kg, iv. The settings on record: in vivo. Type of data set: ADME, organism-based. On the set-up: dose 0.5 mg/kg, route intravenous.
Data set [3] in a line: Half life in rat at 0.5 mg/kg, iv. Type of data set: ADME, organism-based. On the set-up: dose 0.5 mg/kg, route intravenous. The settings on record: in vivo.
Data set [4] in a line: Volume of distribution at steady state in rat at 0.5 mg/kg, iv. The settings on record: in vivo, read-out: Vdss. Also noted: dose 0.5 mg/kg, route intravenous. Type of data set: ADME, organism-based.
Data set [5] can be described thus: Clearance in mouse at 0.5 mg/kg, iv. Particulars: in vivo. Also noted: dose 0.5 mg/kg, route intravenous. Type of data set: ADME, organism-based.
Data set [6] is described as follows: Half life in mouse at 0.5 mg/kg, iv. Type of data set: ADME, organism-based. Also noted: dose 0.5 mg/kg, route intravenous. Particulars: in vivo.
The nature of data set [7]: Volume of distribution at steady state in mouse at 0.5 mg/kg, iv. Particulars: in vivo, read-out: Vdss. Also noted: dose 0.5 mg/kg, route intravenous. Type of data set: ADME, organism-based.
Data set [8] is described as follows: Oral bioavailability in mouse at 5 mg/kg. Type of data set: ADME, organism-based. The settings on record: in vivo.
Data set [9] in a line: Drug metabolism in mouse hepatocytes assessed as oxidative metabolite formation at 10 uM after 2 hrs by LC-MS/MS analysis. Type of data set: ADME, cell-based, Hepatocyte.
Data set [10] can be described thus: Drug metabolism in rat hepatocytes assessed as oxidative metabolite formation at 10 uM after 2 hrs by LC-MS/MS analysis. Type of data set: ADME, cell-based, Hepatocyte.
A short description of data set [11]: Drug metabolism in dog hepatocytes assessed as oxidative metabolite formation at 10 uM after 2 hrs by LC-MS/MS analysis. Type of data set: ADME, cell-based, Canis lupus familiaris, Hepatocyte.
The nature of data set [12]: Drug metabolism in monkey hepatocytes assessed as oxidative metabolite formation at 10 uM after 2 hrs by LC-MS/MS analysis. Type of data set: ADME, cell-based, Macaca mulatta, Hepatocyte. The settings on record: rhesus monkey.
The nature of data set [13]: Drug metabolism in human hepatocytes assessed as oxidative metabolite formation at 10 uM after 2 hrs by LC-MS/MS analysis. Type of data set: ADME, cell-based, Hepatocyte.
Data set [14] can be described thus: Drug metabolism in mouse hepatocytes assessed as 2-(2-(((3R,5R,6S)-1-((S)-2-(tert-butylsulfonyl)-1-cyclopropylethyl)-6-(4-chloro-3-fluorophenyl)-5-(3-chlorophenyl)-3-methyl-2-oxopiperidin-3-yl)methyl)thiazol-5-yl)acetic acid formation at 10 uM after 2 hrs by LC-MS/MS analysis. Type of data set: ADME, cell-based, Hepatocyte.
Data set [15] can be described thus: Drug metabolism in rat hepatocytes assessed as 2-(2-(((3R,5R,6S)-1-((S)-2-(tert-butylsulfonyl)-1-cyclopropylethyl)-6-(4-chloro-3-fluorophenyl)-5-(3-chlorophenyl)-3-methyl-2-oxopiperidin-3-yl)methyl)thiazol-5-yl)acetic acid formation at 10 uM after 2 hrs by LC-MS/MS analysis. Type of data set: ADME, cell-based, Hepatocyte.
The nature of data set [16]: Drug metabolism in dog hepatocytes assessed as 2-(2-(((3R,5R,6S)-1-((S)-2-(tert-butylsulfonyl)-1-cyclopropylethyl)-6-(4-chloro-3-fluorophenyl)-5-(3-chlorophenyl)-3-methyl-2-oxopiperidin-3-yl)methyl)thiazol-5-yl)acetic acid formation at 10 uM after 2 hrs by LC-MS/MS analysis. Type of data set: ADME, cell-based, Canis lupus familiaris, Hepatocyte.
Data set [17] in a line: Drug metabolism in monkey hepatocytes assessed as 2-(2-(((3R,5R,6S)-1-((S)-2-(tert-butylsulfonyl)-1-cyclopropylethyl)-6-(4-chloro-3-fluorophenyl)-5-(3-chlorophenyl)-3-methyl-2-oxopiperidin-3-yl)methyl)thiazol-5-yl)acetic acid formation at 10 uM after 2 hrs by LC-MS/MS analysis. Type of data set: ADME, cell-based, Macaca mulatta, Hepatocyte. The settings on record: rhesus monkey.

The nature of data set [18]: Drug metabolism in human hepatocytes assessed as 2-(2-(((3R,5R,6S)-1-((S)-2-(tert-butylsulfonyl)-1-cyclopropylethyl)-6-(4-chloro-3-fluorophenyl)-5-(3-chlorophenyl)-3-methyl-2-oxopiperidin-3-yl)methyl)thiazol-5-yl)acetic acid metabolite formation at 10 uM after 2 hrs by LC-MS/MS analysis. Type of data set: ADME, cell-based, Hepatocyte.

Each structure is given as a SMILES string. A value given as a limit tells only on which side of the number the result lay.

Broadly, the clearance is the rate of elimination divided by the concentration. As a reminder, the half-life is how long it takes for the measured level to halve. As a reminder, the bioavailability is dose-corrected exposure relative to a reference, in per cent.

`CC(C)(C)S(=O)(=O)C[C@H](C1CC1)N1C(=O)[C@@](C)(Cc2ccc(C(=O)O)cn2)C[C@H](c2cccc(Cl)c2)[C@H]1c1ccc(Cl)cc1`: the hepatocyte CLint in [1] was 10 µL/min/1e6 cells. Also, the clearance was 6 mL/min/kg in data set [2] and 3.83 mL/min/kg in data set [5]. For the same compound, the half-life is 1.8 h in [3] and 2.8 h in [6]. Besides, the Vd in data set [4] was found to be 0.41 L/kg; in [7], 0.57 L/kg. The compound also returned a bioavailability in [8] of 60%.
Consider `CC(C)(C)S(=O)(=O)C[C@H](C1CC1)N1C(=O)[C@@](C)(Cc2ncc(CC(=O)O)s2)C[C@H](c2cccc(Cl)c2)[C@H]1c1ccc(Cl)c(F)c1`, for which, in data set [1], the hepatocyte CLint was 5.5 µL/min/1e6 cells. Further, the clearance in [2] was 3.83 mL/min/kg; in data set [5] it was 2.5 mL/min/kg. The half-life in data set [3] is 4.4 h; in data set [6], 3.2 h. Moreover, the Vd in data set [4] is 0.27 L/kg; in data set [7] it was 0.35 L/kg. The same compound registered a bioavailability in data set [8] of 56%. Further, the Drug metabolism result in data set [9] is recorded as “metabolite_detected”; in [10], “metabolite_detected”; in data set [11], “metabolite_detected”; in data set [12] it was “metabolite_detected”; in [13], “metabolite_detected”; in [14], “metabolite_notdetected”. The Drug metabolism entry in data set [15], in data set [16], in [17] and in data set [18] was “metabolite_notdetected” throughout.
As for `CC(C)(C)S(=O)(=O)C[C@H](C1CC1)N1C(=O)[C@@](C)(Cc2nc(CC(=O)O)cs2)C[C@H](c2cccc(Cl)c2)[C@H]1c1ccc(Cl)cc1`, the hepatocyte CLint in data set [1] amounted to 5.3 µL/min/1e6 cells.
In the case of `CC(C)(C)S(=O)(=O)C[C@H](C1CC1)N1C(=O)[C@@](C)(Cc2ccc(C(=O)O)cn2)C[C@H](c2cccc(Cl)c2)[C@H]1c1ccc(Cl)c(F)c1`, the hepatocyte CLint in data set [1] is 7.8 µL/min/1e6 cells.
Still for that read-out and setting: then `CC(C)(C)S(=O)(=O)C[C@H](C1CC1)N1C(=O)[C@@](C)(Cc2ccc(CC(=O)O)cn2)C[C@H](c2cccc(Cl)c2)[C@H]1c1ccc(Cl)cc1`, with 3.4 µL/min/1e6 cells.
For the compound `CC(C)(C(=O)O)c1ccc(C[C@@]2(C)C[C@H](c3cccc(Cl)c3)[C@@H](c3ccc(Cl)cc3)N([C@H](CS(=O)(=O)C(C)(C)C)C3CC3)C2=O)nc1`, the hepatocyte CLint in [1] was < 0.1 µL/min/1e6 cells.
For the compound `Cc1nc(C[C@@]2(C)C[C@H](c3cccc(Cl)c3)[C@@H](c3ccc(Cl)cc3)N([C@H](CS(=O)(=O)C(C)(C)C)C3CC3)C2=O)ccc1C(=O)O`, the hepatocyte CLint in [1] came out at 26 µL/min/1e6 cells.
Same read-out and setting: then `Cc1cc(C[C@@]2(C)C[C@H](c3cccc(Cl)c3)[C@@H](c3ccc(Cl)cc3)N([C@H](CS(=O)(=O)C(C)(C)C)C3CC3)C2=O)ncc1C(=O)O`, with 5.1 µL/min/1e6 cells; and `CC(C)(C)S(=O)(=O)C[C@H](C1CC1)N1C(=O)[C@@](C)(Cc2ncc(C(=O)O)cn2)C[C@H](c2cccc(Cl)c2)[C@H]1c1ccc(Cl)cc1`, with 10 µL/min/1e6 cells.
The same measure, in the same setting: then `CC(C)(C)S(=O)(=O)C[C@H](C1CC1)N1C(=O)[C@@](C)(Cc2ncc(C(=O)O)cn2)C[C@H](c2cccc(Cl)c2)[C@H]1c1ccc(Cl)c(F)c1`, with 14 µL/min/1e6 cells; and `CC(C)(C)S(=O)(=O)C[C@H](C1CC1)N1C(=O)[C@@](C)(Cc2cnc(C(=O)O)cn2)C[C@H](c2cccc(Cl)c2)[C@H]1c1ccc(Cl)cc1`, with 25 µL/min/1e6 cells.
The same measure, in the same setting: then `CC(C)(C)S(=O)(=O)C[C@H](C1CC1)N1C(=O)[C@@](C)(Cn2cc(C(=O)O)cn2)C[C@H](c2cccc(Cl)c2)[C@H]1c1ccc(Cl)cc1`, with 2.8 µL/min/1e6 cells; and `CC(C)(C)S(=O)(=O)C[C@H](C1CC1)N1C(=O)[C@@](C)(Cc2nc(C(=O)O)cs2)C[C@H](c2cccc(Cl)c2)[C@H]1c1ccc(Cl)cc1`, with 1.8 µL/min/1e6 cells.
Consider `CC(C)(C)S(=O)(=O)C[C@H](C1CC1)N1C(=O)[C@@](C)(Cc2ncc(C(=O)O)s2)C[C@H](c2cccc(Cl)c2)[C@H]1c1ccc(Cl)cc1`, for which the hepatocyte CLint in data set [1] is 8.7 µL/min/1e6 cells. Besides, the clearance is 3.17 mL/min/kg in [2] and 5.83 mL/min/kg in [5]. In addition, the half-life in [3] was 3.6 h; in data set [6], 3.3 h. For the same compound, the Vd in data set [4] came out at 0.18 L/kg; in [7], 0.67 L/kg. The compound further came in with a bioavailability in data set [8] of 18%.
For the compound `CC(C)(C)S(=O)(=O)C[C@H](C1CC1)N1C(=O)[C@@](C)(Cc2ncc(C(=O)CO)s2)C[C@H](c2cccc(Cl)c2)[C@H]1c1ccc(Cl)cc1`, in data set [1], the hepatocyte CLint is 47 µL/min/1e6 cells.
Consider `CC(C)(C)S(=O)(=O)C[C@H](C1CC1)N1C(=O)[C@@](C)(Cc2ncc(C(=O)O)s2)C[C@H](c2cccc(Cl)c2)[C@H]1c1ccc(Cl)c(F)c1`, for which, in data set [1], the hepatocyte CLint was 10 µL/min/1e6 cells. In addition, the clearance in [2] is 1.5 mL/min/kg; in data set [5], 2.5 mL/min/kg. The half-life is 2.3 h in [3] and 4.1 h in data set [6]. Moreover, the Vd in [4] was found to be 0.41 L/kg; in [7], 0.53 L/kg. This compound had a bioavailability in data set [8] of 36%.
For the compound `CC(C)(C)S(=O)(=O)C[C@H](C1CC1)N1C(=O)[C@@](C)(Cc2nccs2)C[C@H](c2cccc(Cl)c2)[C@H]1c1ccc(Cl)c(F)c1`, in data set [1], the hepatocyte CLint amounted to 14 µL/min/1e6 cells.
Regarding `CC(C)(C)S(=O)(=O)C[C@H](C1CC1)N1C(=O)[C@@](C)(Cc2ncc(CC(=O)O)s2)C[C@H](c2cccc(Cl)c2)[C@H]1c1ccc(Cl)cc1`, the hepatocyte CLint in [1] worked out at 5.8 µL/min/1e6 cells. Moreover, the values for the clearance in data set [2] and in [5] were 22.8 mL/min/kg and 7.17 mL/min/kg, respectively. Besides, the values for the half-life in [3] and in data set [6] were 1.81 h and 2.01 h, respectively. In addition, the Vd in data set [4] worked out at 0.74 L/kg; in data set [7] it was 0.72 L/kg. In data set [8], this compound registered a bioavailability of 10%.
For `CC(C)(C(=O)O)c1cnc(C[C@@]2(C)C[C@H](c3cccc(Cl)c3)[C@@H](c3ccc(Cl)cc3)N([C@H](CS(=O)(=O)C(C)(C)C)C3CC3)C2=O)s1`, the hepatocyte CLint in data set [1] amounted to 3.6 µL/min/1e6 cells.
Consider `CC(C)(C)S(=O)(=O)C[C@H](C1CC1)N1C(=O)[C@@](C)(Cc2ncc(C3(C(=O)O)CC3)s2)C[C@H](c2cccc(Cl)c2)[C@H]1c1ccc(Cl)cc1`, for which the hepatocyte CLint in data set [1] is 7.7 µL/min/1e6 cells.
On the same count and under the same terms, in the case of `CC(C)(C)S(=O)(=O)C[C@H](C1CC1)N1C(=O)[C@@](C)(Cc2ncc(C(F)(F)C(=O)O)s2)C[C@H](c2cccc(Cl)c2)[C@H]1c1ccc(Cl)c(F)c1` it was 4.7 µL/min/1e6 cells; in that of `CC(C)(C)S(=O)(=O)C[C@H](C1CC1)N1C(=O)[C@@](C)(Cc2ncc(CC(=O)O)o2)C[C@H](c2cccc(Cl)c2)[C@H]1c1ccc(Cl)c(F)c1`, 4.3 µL/min/1e6 cells; in that of `CC(C)(C)S(=O)(=O)C[C@H](C1CC1)N1C(=O)[C@@](C)(Cc2nnc(CC(=O)O)[nH]2)C[C@H](c2cccc(Cl)c2)[C@H]1c1ccc(Cl)cc1`, 10 µL/min/1e6 cells.
In the case of `CC(C)(C)S(=O)(=O)C[C@H](C1CC1)N1C(=O)[C@@](C)(Cc2ncc(CC(=O)O)[nH]2)C[C@H](c2cccc(Cl)c2)[C@H]1c1ccc(Cl)cc1`, in data set [1], the hepatocyte CLint is 5 µL/min/1e6 cells.
